Read-outs that look alike come from different tables or passages of the source.
Key:
HCT116 cells = test: Anti-proliferation assay on cells (Cell-Titer Glo, 10 days); format: cell-based; settings: ratio of GI50 values
Protocol: Assay example 1: Method of anti-proliferation assay on cells
HCT116^MTAP Deletion cells were from Pharmaron (China); HCT116 cells were from ATCC; McCoy's 5A medium was purchased from Invitrogen (USA); penicillin-streptomycin and fetal bovine serum were purchased from Gibco (USA); a 384-well plate was purchased from PerkinElmer (USA); and Cell-Titer Glo reagent was purchased from Promega (USA).
Compound dissolution: All the compounds were dissolved in dimethyl sulfoxide (DMSO) and then stored. The compounds were stored at room temperature in a dry condition for 3 months for short term storage or at -20 °C for long term storage.
Cell culture and passaging
(§1) The cells were cultured strictly in accordance with ATCC requirements. The cell culture medium (McCoy's 5A medium + 10% fetal bovine serum + 1% penicillin + streptomycin) was transferred to a 15 mL centrifuge tube and centrifuged at 1000 rpm for 5 min. The supernatant was removed. The cells were resuspended with complete culture medium, inoculated into a culture dish at the required density, and cultured in an incubator at 37 °C, 95% humid air, and 5% carbon dioxide. The culture medium was replenished or the cells were passaged every 2-3 days depending on the cell growth condition.
Cell proliferation activity assay
When the confluency of cells in the culture dish reached about 90%, the cells were washed twice with PBS, and then treated with trypsin to become single cells. The cells were counted, and 40µl of the cells was inoculated into each well of a 384-well plate (50 cells/well). The plate was equilibrated at 37 °C and 5% carbon dioxide for 10 to 15 minutes. The compounds were injected into the 384-well plate using Echo550, and positive control and negative control (0.1% DMSO) were set up. Each compound was subjected to a 3-fold dilution, resulting in 10 concentration gradients, in duplicate, and the content of DMSO was 0.1%. The 384-well plate was incubated in a cell culture incubator for 10 days.
Then, 40 µl of cell proliferation assay reagent (CTG) was added to the 384-well plate, and the plate was shaken to mix well. Then, the 384-well plate was incubated at 37 °C and 5% carbon dioxide in the dark for 30 minutes. The data were read using the Envision multifunctional microplate reader. […] According to the different drug concentrations and their corresponding inhibition rates, the GI50 curve was drawn using GraphPad 8.0 software. The data were analyzed, and the final IC50 value was obtained.
In addition, the compounds of the present disclosure also have selectivity for mutant HCT116 cells. […] The selectivity data of representative compounds are shown in Table 2: Table 2 Selectivity data of representative compounds

[1] = Brain permeability in CD1 mice after oral gavage administration; format: in vivo, Mouse/CD1/Male; design: unit not given here; settings: 30 mg/kg PO, 0.25-8 hours
Protocol: Assay example 4 Investigation of brain permeability in CD1 mice after oral gavage administration
4.1.1 Information of administration
4.1.3 Collection and processing of blood sample
4.1.4 Evaluation during the in vivo experiment
4.2 Test sample and preparation
4.2.1 Information of test sample
All the samples were analyzed by LC-MS/MS, and the concentration of the drug to be tested in the samples was determined by the standard curve method.
For the plasma assay results, the pharmacokinetic parameters were calculated using WinNonlin (Phoenix™) or other similar software.

SDMA in HCT116 = test: In-Cell Western Assay of cellular SDMA; format: cell-based; settings: HCT116 cells, 96 hours; read-out: SDMA inhibition IC50 (µM) in HCT116
Excerpt: Assay example 2: Method of In-Cell Western Assay of cellular SDMA
HCT116^MTAP Deletion cells were from Horizon; HCT116 cells were from ATCC; RPMI-1640 medium was purchased from ATCC (USA); penicillin-streptomycin was purchased from Gibco (USA); fetal bovine serum was purchased from ExCell; 96-well plate was purchased from Corning (USA); Symmetric Di-Methyl Arginine Motif [sdme-RG] antibody was purchased from CST (USA); IRDye 800CW Goat anti-Rabbit IgG secondary antibody was purchased from LI-COR (USA), and CellTag 700 stain was purchased from LI-COR (USA).
(§2) Compound dissolution: All the compounds were dissolved in dimethyl sulfoxide (DMSO) and then stored. The compounds were stored at -20°C for long term storage.
(§3) 2.3 Cell culture and passaging
The cells were cultured strictly in accordance with ATCC requirements. The cell culture medium (RPMI-1640 medium + 10% serum + 1% penicillin + streptomycin) was transferred to a 15 mL centrifuge tube and centrifuged at 1000 rpm for 5 min. The supernatant was removed. […]
150µL of 8% paraformaldehyde was added to each well, and the plate was incubated at room temperature for 15 minutes. […] Signals were detected using Licor Odyssey CLX. […] The data were analyzed, and the final IC50 value was obtained. […]

[2] = tested on: HCT116^MTAP Deletion cells; test: Anti-proliferation assay on cells (Cell-Titer Glo, 10 days); format: cell-based; settings: HCT116^MTAP Deletion cells, 10 days incubation, CTG readout, read-out: HCT116^MTAP Deletion GI50
In short: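 HCT116^MTAP Deletion cells seeded at 50 cells/well and exposed to 10-point 3-fold compound dilutions in duplicate (0.1% DMSO) for 10 days at 37 °C. Viability read by CellTiter-Glo luminescence; IC50 derived from GI50 curves of concentration versus inhibition.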

[3] = tested on: SDMA in HCT116^MTAP Deletion; test: In-Cell Western Assay of cellular SDMA; format: cell-based; settings: HCT116^MTAP Deletion cells, 96 hours; read-out: SDMA inhibition IC50 (µM) in HCT116^MTAP Deletion
Protocol: as §2, §3
as §1, with “The cell culture medium (McCoy's 5A medium + 10% fetal bovine serum + 1% penicillin + streptomycin) was transferred to a 15 mL centrifuge tube and centrifuged at 1000 rpm for 5 min.” left out
2.4 In-Cell Western Assay of SDMA
When the confluency of cells in the culture dish reached about 90%, the cells were washed twice with PBS, and then digested with trypsin. 100 µl of the cells was inoculated into each well of a 96-well plate (800 cells/well). The plate was incubated overnight in a 37 °C and 5% CO2 incubator. 50 µL of 3x final concentration of a compound was added to the cell culture plate. Each compound was subjected to a 3-fold dilution, resulting in 10 concentration gradients, in duplicate, and the final concentration of DMSO was 0.5%. The plate was incubated in a 37 °C and 5% CO2 incubator for 96 hours.
150µL of 8% paraformaldehyde was added to each well, and the plate was incubated at room temperature for 15 minutes. The supernatant was discarded. The plate was washed with PBS, and 200µL of freshly prepared 1x Permeabilization buffer was added to each well. The plate was incubated at room temperature for 30 minutes. The supernatant was discarded. 200µL of 1x Blocking buffer was added to each well, and the plate was incubated at room temperature for 2 hours. The supernatant was discarded. 50µL of primary antibody (CST, 1x Incubation buffer 1:500 dilution) was added to each well, and the plate was incubated at 4°C overnight. The supernatant was discarded. 250µL of 1x Washing buffer was added to each well, and the plate was washed three times. 50µL of secondary antibody (IRDye 800CW Goat anti-Rabbit IgG and CellTag 700 dye, 1:800 and 1:500 diluted in Incubation buffer) was added to each well, and the plate was incubated at room temperature for 1 hour. The supernatant was discarded. The plate was washed with 1x Washing buffer. Signals were detected using Licor Odyssey CLX. […] According to the different drug concentrations and their corresponding inhibition rates, the IC50 curve was drawn using GraphPad 8.0 software. The data were analyzed, and the final IC50 value was obtained. […] Table 3 Inhibitory activity on cellular SDMA

Row | SMILES | Selectivity multiple of HCT116^MTAP WT GI50/ HCT116^MTAP Deletion GI50 (HCT116 cells) | GI50 [2] [nM] | IC50 [3] [µM] | GI50 ([2]; 240 h) [nM] | also measured
1 | CN(C(=O)C(=O)Nc1cnc(N)c2c1cnn2C)C1COc2cc(C(F)(F)F)ccc21 (single isomer, unassigned) [Example 112-P1] | 385 | < 10 | < 0.01 | – | Brain AUClast/D ([1]; brain): 428; CSF AUClast/D ([1]; cerebrospinal fluid): 6.15; Plasma AUClast/D ([1]; plasma): 464; IC50 (SDMA in HCT116): 0.1 to 1 µM
2 | CN(C(=O)C(=O)Nc1cnc(N)c2c1cnn2C)C1COCc2nc(C(F)(F)F)ccc21 (single isomer, unassigned) [Example 152-P2] | – | < 10 | 0.01 to 0.1 | – | –
3 | C[C@H](c1ncccn1)N(Cc1ccc(C(F)(F)F)cn1)C(=O)C(=O)Nc1cnc(N)c2c1COC2 [Example 2] | – | 10 to 100 | < 0.01 | – | –
4 | CN(C(=O)C(=O)Nc1cnc(N)c2c1cnn2C)C1COCc2cc(C3=CCOCC3)ccc21 (centres unmarked) [Example 132-P1] | 266 | < 10 | < 0.01 | – | –
5 | Cc1ncc(-c2ccc3c(c2)COCC3N(C)C(=O)C(=O)Nc2cnc(N)c3c2cnn3C)s1 (centres unmarked) [Example 135] | 285 | < 10 | < 0.01 | – | –
6 | CN(C(=O)C(=O)Nc1cnc(N)c2c1cnn2C)C1COCc2cc(-c3ccnn3C)ccc21 (centres unmarked) [Example 156-P1] | – | – | < 0.01 | – | –
7 | Cc1nn(C)c(C)c1-c1ccc2c(c1)COCC2N(C)C(=O)C(=O)Nc1cnc(N)c2c1cnn2C (centres unmarked) [Example 178] | 116 | – | – | < 10 | –
8 | Cc1ccc(-c2ccc3c(c2)COCC3N(C)C(=O)C(=O)Nc2cnc(N)c3c2cnn3C)cn1 (centres unmarked) [Example 184] | 221 | – | – | < 10 | –
9 | CN(C(=O)C(=O)Nc1cnc(N)c2c1cnn2C)C1COCc2cc(-c3ccc(C(F)(F)F)nc3)ccc21 (centres unmarked) [Example 185] | 240 | – | – | < 10 | –
10 | CN(C(=O)C(=O)Nc1cnc(N)c2c1cnn2C)C1COc2cc(-c3ccnn3C)ccc21 (centres unmarked) [Example 192-P1] | 252 | – | < 0.01 | – | –
11 | CN(C(=O)C(=O)Nc1cnc(N)c2c1cnn2C)C1COCc2cc(-c3cnc(C4CC4)s3)ccc21 (centres unmarked) [Example 194] | 429 | – | – | < 10 | –
12 | CN(C(=O)C(=O)Nc1cnc(N)c2c1cnn2C)C1COCc2c1ccc(C(F)(F)F)c2F (centres unmarked) [Example 195] | 226 | – | – | < 10 | –
13 | Cc1ncccc1-c1ccc2c(c1)COCC2N(C)C(=O)C(=O)Nc1cnc(N)c2c1cnn2C (centres unmarked) [Example 201] | 128 | – | – | < 10 | –

From patent EP4563571A1, “PRMT5 INHIBITORS” (Beijing Earthwise Technology Co., Ltd., priority 2022, dated 2024)
